Assay results as given in paper PMC11069587, “An Elastin-like Polypeptide-fusion peptide targeting capsid-tegument interface as an antiviral against cytomegalovirus infection” (Scientific Reports, 2024).
Where no end group is shown, it is not given here.

Tests used:
[1] = system: uninfected MEFs; assay: Cell viability of uninfected MEFs, trypan blue exclusion; details: 80 μM, mock-infected, 3 days
Procedure: Cells were harvested at 3 dpi, and cell viability was assessed by trypan blue exclusion assay for both uninfected and infected groups. The standard error of the mean from three different experiments were plotted as error bars.
MEFs were plated in 24-well tissue-culture plates and grown to confluency in triplicates. […] At 3 dpi, the CMC (carboxymethylcellulose) + DMEM overlay was removed. The cells were then harvested by trypsinization to determine the cell viability using trypan blue exclusion with a TC20 automated cell counter (BioRad Laboratories, Hercules, CA, USA) following the manufacturer’s protocol. […] The cells were washed twice with PBS and overlayed with CMC + DMEM and incubated for 3 days. […] The percentage of cell survival was plotted for different treatment groups, and data were analyzed by one-way ANOVA using Tukey post hoc test.

[2] = system: HIV; design: method as in PMID 8312047; details: cited from earlier work
[3] = system: Hepatitis B and D; design: method as in PMID 20007265; details: cited from earlier work
[4] = Plasma pharmacokinetics of rhodamine-labeled constructs in mice; format: in vivo, mouse (Balb/c)
Procedure: (§1) Plasma pharmacokinetics (a) were determined for 72 h after injection. In a separate cohort of mice (females, n = 4 per group), major organ biodistribution was determined 4 h after injection by ex vivo whole-organ fluorescence imaging (b and c). The standard deviations were plotted as error bars.
(§2) Blood samples were collected from the tail vein at different time points and centrifuged to collect plasma. […] For the biodistribution, a separate cohort of mice (female, n = 4 per group) were euthanized four hours after the injection with proteins or saline control, and the brain, spleen, liver, lungs, kidneys, and heart were harvested and assessed by ex-vivo whole organ imaging using the In Vivo Imaging System (IVIS, Perkin Elmer). […] To determine pharmacokinetic parameters, plasma concentrations during the clearance phase (from the peak of the plasma concentration curve) were fit using a two-compartment pharmacokinetic model as described previously using GraphPad Prism[32].

[5] = Organ biodistribution by ex vivo whole-organ fluorescence imaging in mice; design: species or system mouse (Balb/c); details: rhodamine-labeled, subcutaneous, 4 h post-injection, ex vivo IVIS imaging, female mice n = 4
Procedure: as §1, §2

Q: Which “cell viability of uninfected MEFs” value [1] does the source give for `Nc1nc(O)c2ncn(COC(CO)CO)c2n1` [GCV, ganciclovir] here?
A: not affected

Q: Which IC50 [2] does the source give for Enfuvirtide here?
A: nanomolar range

Q: Which “concentrations at which efficacy was demonstrated” value [3] does the source give for Myrcludex B here?
A: picomolar concentrations

Q: For NKLVYTGRL [P10], which “Area Under Curve” value ([4]; 500 nmol/Kg subcutaneous, female mice n = 4 per group, plasma fluorescence over 72 h) is on record?
A: 1185 ± 383 µM·h

Q: And the “time after which clearance from plasma began” value ([4]; subcutaneous, mouse plasma)?
A: 2 h

Q: And the “accumulation in the kidneys” value [5]?
A: much lower levels than ELP-P10

Q: And the “accumulation in the liver” value [5]?
A: much lower levels than ELP-P10
